According to patent US20200405793A1, “USE OF […] PATHWAY INHIBITOR AND […] PREPARING ANTI-TUMOR DRUG” (GUANGZHOU VIROTECH PHARMACEUTICAL CO., LTD., priority 2017, published 2020):
Entries after “also recorded” stand apart in the source; their conditions may differ.

Key:
alphavirus M1 = assay: Mevalonate pathway inhibiting compounds acting on tumor cells with M1 virus: virus replication; assay type: cell-based
[1] = system: HCT-116 or SW 1990 transplanted tumors; assay: Growth of subcutaneous transplanted tumors in nude mice; assay type: in vivo, BALB/c nude mice; details: Tipifarnib 500 μg/kg/d i.p.; M1 2×10^9 PFU/kg/d tail vein; 6 consecutive injections; vs control group; both tumor models
Protocol: This experiment used a randomized, single-blind design. 5×10^6 HCT-116 or SW 1990 cells were injected subcutaneously into the dorsal flank of the 4 week old BALB/c nude mouse.
When the tumor size reached 50 mm3, the mice were divided into […], including untreated control group, Tipifarnib alone group (500 μg/kg/d by intraperitoneal injection), M1 infection alone group (2×10^9 PFU/kg/d by tail vein injection of M1 virus) and Tipifarnib/M1 combined group (same dose of Tipifarnib and M1 virus), and treated with 6 consecutive injections. The length, width and weight of the tumor were measured every two days, and the volume of the tumor was measured according to the formula (length×width^2)/2. One way ANOVA was performed after measuring tumor volume, ***indicates p<0.001.

SW1990 cells = assay: MTT cell viability, Tipifarnib and M1 virus; assay type: cell-based, human; details: Tipifarnib 50 nM, M1 virus MOI=1, 48 h
Excerpt: (§1) Each group of experiments was repeated 3 times.

HCT-116 cells [2] = assay: MTT cell viability, Tipifarnib and M1 virus; assay type: cell-based, human; details: Tipifarnib 50 nM, M1 virus MOI=1, 48 h
Excerpt: as §1

HCT-116 cells [3] = assay: Cell morphology after fluvastatin and M1 virus treatment; assay type: cell-based, human; details: fluvastatin 2 μM, M1 virus MOI=1, 48 hours
Protocol: (§2) a) Cell culture: human intestinal cell carcinoma strain HCT-116 was grown in a DMEM complete medium containing 10% FBS, 100 U/ml penicillin and 0.1 mg/ml streptomycin; all cell strains were cultured in a constant temperature closed incubator at 5% CO2, 37° C. (95% RH) and observed by the inverted microscope. Cells were passaged once for approximately 2-3 days and the cells in logarithmic growth phase were used for formal experiments.
c) Cells were inoculated into a 24-well plate at 30,000 cells/well; after the cells were treated with fluvastatin 2 (μM), they were infected with M1 virus (MOI=1); and the changes of cell morphology were observed under the inverted phase contrast microscope after 48 hours.

[4] = system: M1 viral proteins (structural protein E1 and non-structural protein NS3); assay: Immunoblot of M1 viral proteins after statin treatment of M1-infected HCT-116 cells; assay type: cell-based, M1 virus; details: concentration not given
Protocol: as §2
Cells were infected with M1 virus (MOI=1), treated with M1 virus (MOI=1) combined with fluvastatin or atorvastatin (1 and 10 μM), and cellular proteins were harvested after 24 hours and immunoblotted.

[5] = system: M1 virus structural protein E1 and nonstructural protein NS3; assay: Immunoblot of M1 viral proteins after siRNA interference of mevalonate pathway genes; assay type: cell-based; details: HCT-116; siRNA HMGCR, SQLE, FNTB, PGGT1B, RABGGTB 25, 25, 4, 20, 20 nM; M1 1 MOI; 24 hours
Protocol: (§3) The cells were inoculated into a 35 mm culture dish, cultured until the confluence degree of the cells reaches 60% and subjected to the following interference treatment: firstly, a Lipofectamine RNAiMAX solution was prepared with Opti-MEM by diluting according to 2 μL: 198 μL per culture dish and uniformly mixing; secondly, an siRNA solution was prepared with Opti-MEM by diluting according to 1.8 μL: 198 μL per culture dish, wherein the final concentration of siRNA interfering HMGCR, SQLE, FNTB, PGGT 1B and RABGGTB (specifically see FIG. 9 and the description of the Figures) were 25, 25, 4, 20 and 20 nM respectively, and mixing gently; finally, the diluted Lipofectamine RNAiMAX and siRNA were mixed, and stood for 15 minutes at room temperature; the mixed solution was added into a culture dish containing 1.5 mL of serum-free culture medium; and the medium was changed to a complete medium after 24 hours, and infected with M1 virus (1MOI). Cell lysates were collected after 24 hours and immunoblotted.

[6] = system: HCT-116, Capan-1 and SW 1990 cells; assay: Cell morphology under inverted phase contrast microscope after siRNA interference of HMGCR and M1 virus infection; assay type: cell-based, human; details: HCT-116, Capan-1, SW 1990; siRNA 25 nM; M1 virus 1 MOI; 48 h after infection
Protocol: as §3, with “was 25 nM,” for “interfering HMGCR, SQLE, FNTB, PGGT 1B and RABGGTB (specifically see FIG. 9 and the description of the Figures) were 25, 25, 4, 20 and 20 nM respectively,”, “The changes in cell morphology” for “Cell lysates”, “observed” for “collected”, “48 h under the inverted phase contrast microscope.” for “24 hours and immunoblotted.”

| Molecule | replication of the alphavirus M1 (alphavirus M1) | expression of M1 virus protein [4] | also measured |
| --- | --- | --- | --- |
| COC(=O)[C@H](CCSC)NC(=O)c1ccc(NC[C@@H](N)CS)cc1-c1ccccc1.O=C(O)C(F)(F)F [FTI277] | promote replication of the alphavirus Ml | – | – |
| Cn1cncc1[C@@](N)(c1ccc(Cl)cc1)c1ccc2c(c1)c(-c1cccc(Cl)c1)cc(=O)n2C [Tipifarnib] | promote replication of the alphavirus Ml | – | tumor volume [1]: only a slight reduction in tumor volume; tumor cell survival rate (SW1990 cells): 90%; tumor cell survival rate (HCT-116 cells [2]): 80% |
| CC(C)n1c(/C=C/[C@@H](O)C[C@@H](O)CC(=O)[O-])c(-c2ccc(F)cc2)c2ccccc21.[Na+] [fluvastatin] | promote replication of the alphavirus Ml | significantly increase the protein expression of M1 virus; also recorded: promote the expression of M1 virus protein | changes of cell morphology (HCT-116 cells [3]): induced lesions in a small number of cells |
| AACCCAAUGCCCAUGUUCCdTdT (as printed in the source, key not given here) [siRNA targeting HMGCR, siRNA interfering the HMG-CoA reductase gene (HMGCR)] | – | – | expression of structural protein E1 and nonstructural protein NS3 of the virus [5]: increased significantly; also recorded: significantly increase the protein expression of M1 virus; changes in cell morphology [6]: did not affect the morphology of tumor cells |
| atorvastatin | promote replication of the alphavirus Ml | significantly increase the protein expression of M1 virus; also recorded: promote the expression of M1 virus protein | – |
